Results as given in PMC11539229 (Antimicrobial Agents and Chemotherapy, 2024).
In brackets after ≈: the same amount, converted by molar mass. Like-named read-outs stand apart in the source and are kept apart here.

Columns and labels:
[1] = format: in vitro ADME
Protocol: To assess the susceptibility of GSK138 to P450-mediated phase I metabolism, metabolic stability was determined during incubation in CD1 mouse, Sprague Dawley rat, beagle dog, and human liver microsomes.
Human and animal microsomes and compounds were pre-incubated at 37°C prior to addition of NADPH to final protein concentration of 0.5 mg/mL and a final compound concentration of 0.5 µM. Quantitative analysis was performed using specific liquid chromatography-tandem mass spectrometry (LC-MS/MS) conditions. The half-life, elimination rate constant, and intrinsic clearance (mL/min/g tissue) were determined. The well-stirred model was used to translate to in vivo CI values (mL/min/kg).

[2] = target: T1, P-glycoprotein (P-gp) (Homo sapiens, UniProt P08183); test: Efflux ratio with and without P-gp inhibitor GF120918 in MDR1-MDCKII cells; format: in vitro ADME
T1 construct: expressed in transfected cells; host or cells: MDR1-MDCKII (Madin-Darby canine kidney cells expressing MDR1)
T1 sequence (P08183 whole entry): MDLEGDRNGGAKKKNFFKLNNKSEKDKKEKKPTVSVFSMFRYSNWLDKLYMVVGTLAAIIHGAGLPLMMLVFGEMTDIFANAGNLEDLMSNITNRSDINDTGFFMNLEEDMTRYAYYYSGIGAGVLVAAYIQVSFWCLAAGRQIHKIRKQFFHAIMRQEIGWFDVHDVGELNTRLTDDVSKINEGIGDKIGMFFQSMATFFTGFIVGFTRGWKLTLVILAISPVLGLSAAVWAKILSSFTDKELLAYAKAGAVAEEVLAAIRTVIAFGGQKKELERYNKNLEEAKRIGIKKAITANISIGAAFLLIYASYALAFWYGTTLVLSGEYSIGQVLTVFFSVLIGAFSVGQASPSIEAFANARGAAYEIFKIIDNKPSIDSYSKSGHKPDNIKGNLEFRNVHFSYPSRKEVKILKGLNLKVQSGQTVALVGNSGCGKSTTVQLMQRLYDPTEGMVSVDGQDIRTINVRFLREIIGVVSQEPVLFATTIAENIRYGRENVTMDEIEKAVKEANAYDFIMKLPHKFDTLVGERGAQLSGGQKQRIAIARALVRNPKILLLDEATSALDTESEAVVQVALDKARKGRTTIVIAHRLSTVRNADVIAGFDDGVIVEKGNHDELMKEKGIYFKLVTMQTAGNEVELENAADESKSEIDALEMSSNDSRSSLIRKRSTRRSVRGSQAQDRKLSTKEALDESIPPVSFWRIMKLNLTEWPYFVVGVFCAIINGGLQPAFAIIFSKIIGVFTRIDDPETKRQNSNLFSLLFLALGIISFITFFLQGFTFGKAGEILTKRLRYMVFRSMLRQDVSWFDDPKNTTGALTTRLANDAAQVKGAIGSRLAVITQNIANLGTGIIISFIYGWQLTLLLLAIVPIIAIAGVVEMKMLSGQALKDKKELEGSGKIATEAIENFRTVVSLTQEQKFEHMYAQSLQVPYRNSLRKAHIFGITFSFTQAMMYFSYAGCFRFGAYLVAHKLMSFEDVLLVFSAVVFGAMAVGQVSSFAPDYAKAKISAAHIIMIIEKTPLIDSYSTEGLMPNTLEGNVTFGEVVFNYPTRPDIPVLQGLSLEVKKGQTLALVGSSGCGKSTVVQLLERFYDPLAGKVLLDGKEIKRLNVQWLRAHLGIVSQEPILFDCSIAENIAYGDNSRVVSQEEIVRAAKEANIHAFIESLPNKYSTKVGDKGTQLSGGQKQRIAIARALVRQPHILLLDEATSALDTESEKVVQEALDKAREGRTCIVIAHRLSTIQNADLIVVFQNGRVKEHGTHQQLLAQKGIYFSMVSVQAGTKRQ
Protocol: The measured solubility in fasted state simulated intestinal fluid (FaSSIF) was high (Table 1). The permeability of GSK138 predicted from Madin-Darby canine kidney (MDCK) cells was also high (Table 1).
(§1) Studies were performed as described by Polli et al. ([31]), with minor modifications. GF120918 was used as the inhibitor of P-gp. Apical-to-basolateral and basolateral-to-apical transports were studied across MDR1-MDCKII cell monolayers in the absence and presence of the P-gp inhibitor GF120918, and the Papp (intrinsic apparent permeability) was estimated in both directions with or without inhibitor.

[3] = Protocol: The Ames assay was carried out as previously described ([34]) using all strains.
[4] = system: HepG2 cells; format: cell-based; settings: human, 48 h
Protocol: HepG2 cells were cultured using Eagle’s minimum essential media (EMEM) supplemented with 10% heat-inactivated FBS, 1% non-essential amino acid (NEAA), and 1% penicillin/streptomycin. Prior to addition of the cell suspension, 250 nL of test compounds per well was pre-dispensed in tissue culture-treated black clear-bottomed 384-well plates (Greiner, cat. no. 781091) with an Echo 555 instrument. After that, 25 µL of HepG2 (cat. no. ATCC HB-8065) cells (∼3,000 cells/well) grown to confluency in EMEM supplemented with 10% heat-inactivated FBS, 1% NEAA, and 1% penicillin/streptomycin were added to each well with the reagent dispenser. Plates were allowed to incubate at 37°C with 20% O2 and 5% CO2 for 48 hrs. After incubation, the plates were equilibrated to room temperature before ATP levels were measured with the CellTiter Glo kit (Promega) as the cell viability read-out. 25 µL of CellTiter Glo substrate dissolved in the buffer was added to each well. Plates were incubated at room temperature for 10 min for stabilization of luminescence signal and read on a View Lux luminometer with excitation and emission filters of 613 and 655 nm, respectively. The Tox50 value corresponds to the concentration of the compound necessary to inhibit 50% of cell growth.

[5] = in vivo; design: species or system C57BL/6 mice; settings: iv, 1 mg/kg
Protocol: To determine the pharmacokinetic parameters, GSK138 was administered intravenously [formulation: 5% dimethyl sulfoxide (DMSO)/20% Encapsin in saline solution] as a single bolus dose in C57BL/6 mice at a target dose of 1 mg/kg. All pharmacokinetic parameters were determined in whole blood (Table 1). A moderate clearance and a moderate volume of distribution were observed.
Single-dose pharmacokinetics experiments were performed in female C57BL/6 mice, 21–29 g, obtained from Charles River Laboratories (Wilmington, MA, USA) and housed in cages in groups of three animals with water and food ad libitum. Animals were maintained for 1 week before the experiment.
The compound was dissolved in 20% Encapsin (Sigma-Aldrich), 5% DMSO (Sigma-Aldrich) in saline solution (Sigma-Aldrich) for intravenous administration, and in 1% methylcellulose (Sigma-Aldrich) in water for oral administration.
For PK analysis, 25 µL of tail blood was collected by microsampling at 0.08, 0.25, 0.5, 1.0, 2.0, 4.0, 6.0, 8.0, and 24.0 h for intravenous pharmacokinetics and 0.25, 0.5, 1.0, 2.0, 4.0, 6.0, 8.0, and 24.0 h for oral pharmacokinetics.

[6] = physchem
[7] = system: HepG2 cells; test: Cell health assay (three-parameter imaging); format: cell-based, human
Protocol: This is a three-parameter automated imaging cell-based assay to measure the cytotoxic effect of compounds in human liver-derived HepG2 cells. Using fluorescent staining, we measured the following key parameters in this assay: nuclear size, mitochondrial membrane potential and plasma membrane permeability. HepG2 cells (ATCC HB-8065) were incubated with the test compounds in 384-well plates. After 48 h, the staining cocktail was added. Hoechst 33342 was used to stain nuclei and quantify changes in nuclear morphology. Tetramethylrhodamine, methyl ester is a cationic dye that accumulates in healthy mitochondria that maintain a mitochondrial membrane potential and leaks out of mitochondria when the mitochondrial membrane potential is dissipated. TOTO-3 iodide labels nuclei of permeabilized cells and is used to measure plasma membrane permeability. Following 45 min of incubation with these stains, the plates were sealed using a black seal for reading on an INCell Analyzer 2000 (GE Healthcare). Each parameter measurement produces the percentages of cells which are “live” or “dead.” The IC50 is defined as the compound concentration that inhibits 50% of cell growth.

[8] = system: Madin-Darby canine kidney-MDR1; test: in vitro; format: in vitro ADME
Protocol: as §1

[9] = in vitro; format: in vitro ADME, canine; settings: dog, MDCK-MDR1
Protocol: as §1

[10] = system: M. tuberculosis H37Rv; test: Extracellular MIC, broth dilution with resazurin; format: cell-based; settings: Mycobacterium tuberculosis, read-out: Mtb MIC
Protocol: MICs against the H37Rv strain were determined by broth dilution assay in Middlebrook 7H9 medium supplemented with 10% ADC. After incubating at 37°C for 6 days, 25-µL resazurin solution (one tablet in 30-mL sterile PBS) was added to each well. Following incubation at 37°C for two additional days, the lowest concentration of drug that inhibited 90% of resazurin conversion compared to internal DMSO control wells with no drug added was used to define MIC values.

[11] = system: M. tuberculosis H37Rv; test: Acute murine model of intratracheal infection; format: in vivo, C57BL/6 mice; settings: oral once daily for 8 days

## Cc1csc([C@](C)(O)c2nnc(Nc3cc(C)n(Cc4csc(C)n4)n3)s2)n1 [GSK138]
[1]; dog
  in vitro clearance in liver microsomes: moderate
[1]; human
  in vitro clearance in liver microsomes: low
[1]; microsomes
  In vitro Clint dog: 1.7 mL/min/g tissue
  In vitro Clint human: 0.3 mL/min/g tissue
  In vitro Clint mouse: 4.4 mL/min/g tissue
  In vitro Clint rat: 3.5 mL/min/g tissue
[1]; mouse
  in vitro clearance in liver microsomes: moderate
[1]; rat
  in vitro clearance in liver microsomes: moderate
[2]
  P-gp substrate status from efflux ratio: P-gp substrate
[3]
  Ames test: Negative
[4]
  HepG2 cytotoxicity Tox50: >100 µM
[5]; female, C57BL/6, mouse
  Vd: 2.6 ± 0.3 L/kg
  clearance: 77.6 ± 16.8 mL/min/kg
[5]; mouse
  clearance: moderate
  volume of distribution: moderate
[6]; pH 7.4, Chrom logD
  chromatographic logD: 3.39
[6]; pH 7.4, chrom logD
  chromatographic logD: 3.38
[7]; HepG2, 48 h
  Cell health IC50 (nuclear size, mitochondrial membrane potential, and plasma membrane permeability): >199.5 µM
[7]; membrane, nuclear and mitochondrial damages
  effect in the cell health assay: no effect up to the highest concentration tested (200 µM)
[8]
  permeability predicted from MDCK cells: high
[9]
  Papp: 37.4 ×10⁻⁶ cm/s
[10]
  MIC: 1 µM (≈ 0.434 µg/mL)
[11]
  effect on bacteria at the highest doses: net killing of the bacteria
[11]; 95% CI 50–67
  ED99 (dose producing a 2-log10 reduction in CFUs compared to untreated control mice): 57 mg/kg
[11]; 95% CI 125 to >290
  EDmax (dose at which 90% of the maximum bactericidal effect was achieved): 167 mg/kg
